Experimental findings from patent publication US20100120690A1, “Polypeptides Having Antimicrobial Activity and Polynucleotides Encoding Same” (Novozymes Adenium Biotech A/S, priority 2005, published 2010) are described below.

This experiment relates to Staphylococcus carnosus ATCC51365. Nature of the experiment: Yeast screening assay: radial diffusion assay of yeast supernatants. The conditions noted are these: yeast supernatant, clearing zone in radial diffusion assay. Format: cell-based. On the set-up: key: An activity of 3 is better than Plectasin; An activity of 2 corresponds to the activity of Plectasin; 1 is worse than Plectasin. The protocol: A range of antimicrobial polypeptides, which are variants of SEQ ID NO: 1 (Plectasin), were tested for antimicrobial activity by expressing them in S. cerevisae and screening the supernatant of the yeast transformants for antimicrobial activity against Staphylococcus carnosus ATCC51365.
Radial Diffusion Assay was carried out as described in Methods in Molecular Biology, Vol. 78, Antibacterial peptide protocol, William M. Shafer, Human Press.
200-300 yeast transformant colonies were plated on 14 cm round plates containing 25 mL SC growth medium supplemented with 1.5% galactose, 0.5% glucose and 1.5% agarose. Plates were incubated for three hours at room temperature, overlaid with 25 mL of the same growth medium and allowed to grow for three days at 30° C. Then the plates were overlaid with 25 mL of LB growth medium containing 1.5% agarose and 10^5 cells of the indicator strain Staphylococcus carnosus and incubated at 30° C. overnight to allow growth of the bacterial cells. Next day, the plates were stained with 1.5 mM MTT to facilitate visualization of the clearing zones.
Yeast colonies creating clearing zones were transferred to microtiter plates containing 200 micro-L of SC growth medium supplemented with 2% glucose and ampicillin (100 mg/L). Such plates designated “master plates” were incubated for 2 days at 30° C. with shaking at 450 rpm to allow yeast growth.
10 micro-L SC growth medium from each well of the master plates were transferred to new microtiter plates containing 200 micro-L SC growth medium with 1.5% galactose and 0.5% glucose. These plates were called daughter plates and were incubated for 3 days at 30° C. under 450 rpm shaking to allow yeast growth and peptide synthesis.
Finally a Radial Diffusion Assay (RDA) was performed following the protocol described in Methods in Molecular Biology to analyse and quantify the antimicrobial activity of the yeast supernatants against S. carnosus.
Briefly, 30 mL of minimal underlay medium containing 1% agarose and 5×10^5 cfu/mL of S. carnosus was poured in an omnitray plate (Nunc, 242811). A Nunc TSP plate (#445497) was inserted immediately on the plate to allow a 96 well pattern formation. Once the media had solidified, the TSP plate was removed and 10 micro-L of yeast supernatant samples were applied on the holes. Plates were incubated 3 hours at 37° C. and overlaid with 15 mL of LB agar growth medium. Finally, plates were incubated overnight at 37° C. and coloured with 1.5 mM MTT to visualize the clearing zones.
Inspection and measurements of the clearing zones was performed on the plates. The corresponding yeast clones resulting in clearing zones of similar or increased size than the clones encoding for wild type plectasin were picked from the master plates and transferred to agar plates containing SC growth medium with 2% glucose and ampicillin (100 mg/L). Such plates were incubated for further 2 days at 30° C. to allow yeast growth. Subsequently, colony PCR was performed followed by sequence analysis to identify amino acid changes in the plectasin sequence.
An activity of 2 corresponds to the activity of Plectasin. An activity of 3 is better than Plectasin, and 1 is worse than Plectasin.
With “GFGCNGPWDEDDMQCHNHCKSIKGYKGGYCSKGGFVCKCY [Mutation A31S]”, the “Activity (antimicrobial activity relative to the activity of plectasin)” value amounted to 2.

On to “GFGCNGPWDEDDMQCHNHCKSIKGYKGGYCAKGGFVCKCI [Mutation Y40I]”, for which the “Activity (antimicrobial activity relative to the activity of plectasin)” value is recorded as 2. Turning to “GFGCNGPWDEDDMQCHNHCKSIKKYKGGYCAKGGFVCKCY [Mutation G24K]”, the “Activity (antimicrobial activity relative to the activity of plectasin)” value was determined as 3. In the case of “GFGCNGPWDEDDMWCHNHCKSIKGYKGGYCAKGGFVCKCY [Mutation Q14W]”, the “Activity (antimicrobial activity relative to the activity of plectasin)” value was 2.

Turning to “GFGCNGPWDEDDMQCHNHCKSIKGYKGGYCAKGGFRCKCY [Mutation V36R]”, the “Activity (antimicrobial activity relative to the activity of plectasin)” value came out at 2. With “GFGCNGPWDEDDMQCHNHCKSIKGYKGGFCARGGFVCKCY [Y29F + K32R]”, the “Activity (antimicrobial activity relative to the activity of plectasin)” value is listed as 2. On to “GFGCNGPWDEDDMPCHNHCKSIKGYKGGYCAKGGFVCKCY [Mutation Q14P]”, for which the “Activity (antimicrobial activity relative to the activity of plectasin)” value was 2. On to “GFGCNGPWDENDMQCHNHCKSIKGYKGGYCAKGGFICKCY [D11N + V36I]”, for which the “Activity (antimicrobial activity relative to the activity of plectasin)” value is listed as 3.

As to “GFGCNGPWDEDDMQCHNHCKSIKGMKGGYCAKGGFVCKCY [Mutation Y25M]”, the “Activity (antimicrobial activity relative to the activity of plectasin)” value is 2. With “GFGCNKPWDEDDMQCHNHCKSIKGYKGGYCAKGGFVCKCY [Mutation G6K]”, the “Activity (antimicrobial activity relative to the activity of plectasin)” value is 2. The result for “GFGCNRPWDEDDMQCHNHCKSIKGYKGGYCAKGGFVCKCY [Mutation G6R]” reads 2. The result for “GFGCNGPWDEYDMQCHNHCKSIKGYKGGYCAKGGFVCKCY [Mutation D11Y]” reads 3. Regarding “GFGCNGPWDEDDMQCHNHCKSIKGYKGGACAKGGFVCKCY [Mutation Y29A]”, the “Activity (antimicrobial activity relative to the activity of plectasin)” value came out at 2. The result for “GFGCNGPWWEDDMQCHNHCKSIKGYKGGYCAKGGFVCKCY [Mutation D9W]” reads 2; that for “GFGCNGPWDEDDMQCHNHCKSIKAYKGGYCAKGGFVCKCY [Mutation G24A]”, 2; that for “GFGCNGPWDEDDMQCHNHCKSIKGYKGGYCAKGGIVCKCY [Mutation F35I]”, 2. For “GFGCNGAWDEDDMQCHNHCKSIKGYKGGYCAKGGFVCKCY [Mutation P7A]”, the “Activity (antimicrobial activity relative to the activity of plectasin)” value stood at 2. As to “GFGCNGPWDEDDMQCHNHCKSIKGNKGGYCAKGGFVCKCY [Mutation Y25N]”, the “Activity (antimicrobial activity relative to the activity of plectasin)” value is reported as 2. As to “GFGCNGPWDLDDMQCHNHCKSIKGYKGGYCAKGGFVCKCY [Mutation E10L]”, the “Activity (antimicrobial activity relative to the activity of plectasin)” value was determined as 2. Consider “GFGCNGPWDEDDMQCHNHCKSIKGYKGGYCKKGGFVCKCY [Mutation A31K]”, for which the “Activity (antimicrobial activity relative to the activity of plectasin)” value amounted to 3. In the case of “GFGCNGPWDEDDMQCHNHCKSIKGYKGGYCAKGGFTCKCY [Mutation V36T]” it was 3.

“GFGCNGPWDEDDMVCHNHCKSIKGYKGGYCAKGGFVCKCY [Mutation Q14V]”: the “Activity (antimicrobial activity relative to the activity of plectasin)” value is 2. In the case of “GFGCNGPWDEDDMQCHNHCKSTKGYKGGYCAKGGFVCKCY [Mutation I22T]” it was 2; in that of “GFGCNGPWQEDDMQCHNHCKSIKGYKGGYCAKGGFVCKCY [Mutation D9Q]”, 3. In the case of “GFGCNGPWDEDDMQCHNHCKSIKGYKGGYCAKGGVVCKCY [Mutation F35V]” it was 2; in that of “GFGCNGPWDEMDMQCHNHCKSIKGYKGGYCAKGGFVCKCY [Mutation D11M]”, 3; in that of “GFGCNGPWDEDDMQCHNHCKSIKGYKGGYCAKGGFVCNCY [Mutation K38N]”, 2. The result for “GFGCNGPWDEDDMQCHNHCKSIKGYKGGYCARGGFVCKCY [Mutation K32R]” reads 2; that for “GFGCNGPWDEDDMQCHNHCKSIKGYKGGYCAKGGMVCKCY [Mutation F35M]”, 2; that for “GFGCNGPWDEPDMQCHNHCKSIKGYKGGYCAKGGFVCKCY [Mutation D11P]”, 3. On to “GFGCMGPWDEDDMQCHNHCKSIKGYKGGYCAKGGFVCKCY [Mutation N5M]”, for which the “Activity (antimicrobial activity relative to the activity of plectasin)” value turned out to be 2. As for “GFGCNGPWDETDMQCHNHCKSIKGYKGGYCAKGGFVCKCY [Mutation D11T]”, the “Activity (antimicrobial activity relative to the activity of plectasin)” value is 3. Consider “GWGCNGPWDEDDMQCHNHCKSIKGYKGGYCAKGGFVCKCY [Mutation F2W]”, for which the “Activity (antimicrobial activity relative to the activity of plectasin)” value is reported as 2. As to “GFGCNGPWDEDDMQCHNHCKSIKPYKGGYCAKGGFVCKCY [Mutation G24P]”, the “Activity (antimicrobial activity relative to the activity of plectasin)” value was found to be 2. Turning to “GFGCNGPWDEIDMQCHNHCKSIKGYKGGYCAKGGFVCKCY [Mutation D11I]”, the “Activity (antimicrobial activity relative to the activity of plectasin)” value is on record as 3. In the case of “GFGCNGPWDEDDMQCHNHCKSIKGYKGGLCAKGGFVCKCY [Mutation Y29L]” it was 2; in that of “GFGCNGPWDQDDMQCHNHCKSIKGYKGGYCAKGGFVCKCY [Mutation E10Q]”, 2. In the case of “GFGCNGPWDEVDMQCHNHCKSIKGYKGGYCAKGGFVCKCY [Mutation D11V]” it was 3; in that of “GFGCNGPWDEDDMQCHNHCKSIKGYKGGYCQKGGFVCKCY [Mutation A31Q]”, 3; in that of “GFGCNGPWDEDDMQCHNHCKSIKGYKGGYCAKGKFVCKCY [Mutation G34K]”, 3. For the sequence “GFGCNGPWDEDDMQCHNHCKSIKGYKGGYCHKGGFVCKCY [Mutation A31H]”, the “Activity (antimicrobial activity relative to the activity of plectasin)” value is recorded as 2. Regarding “GFGCNGPWDEDDMQCHNHCKSIKGYKGGYCAKGRFVCKCY [Mutation G34R]”, the “Activity (antimicrobial activity relative to the activity of plectasin)” value came out at 3. On to “GFGCNGPWDEDDMSCHNHCKSIKGYKGGYCAKGGFVCRCY [Q14S + K38R]”, for which the “Activity (antimicrobial activity relative to the activity of plectasin)” value stood at 2. “GFGCNGPWDEDDMYCHNHCKSIKGYKGGYCAKGGFVCKCY [Mutation Q14Y]”: the “Activity (antimicrobial activity relative to the activity of plectasin)” value is 3. With “GFGCKGPWDEGDMQCHNHCKSIKGYKGGYCAKGGFVCKCY [N5K + D11G]”, the “Activity (antimicrobial activity relative to the activity of plectasin)” value was found to be 3. In the case of “GFGCNGPWDEDDMQCHNHCKSIKGYKGGSCAKGGFVCKCY [Mutation Y29S]”, the “Activity (antimicrobial activity relative to the activity of plectasin)” value is on record as 2. In the case of “GFGCLGPWDEDDMQCHNHCKSIKGYKGGYCAKGGFVCKCY [Mutation N5L]” it was 2. Take “GFGCNGPWDERDMQCHNHCKSIKGYKGGYCAKGGFVCKCY [Mutation D11R]”: the “Activity (antimicrobial activity relative to the activity of plectasin)” value worked out at 3.

For the sequence “GFGCNGPWDADDMQCHNHCKSIKGYKGGYCAKGGFVCKCY [Mutation E10A]”, the “Activity (antimicrobial activity relative to the activity of plectasin)” value turned out to be 2. For the sequence “GFGCNGPWDEWDMQCHNHCKSIKGYKGGYCAKGGFVCKCY [Mutation D11W]”, the “Activity (antimicrobial activity relative to the activity of plectasin)” value is recorded as 3. The result for “GFGCNGPWDEDDMQCHNHCKSIKGYKGGYCAKNGFVCKCY [Mutation G33N]” reads 2; that for “GFGCNGPWDEDDMQCHNTCKSIKGYKGGYCAKGGFVCKCY [Mutation H18T]”, 2. In the case of “GFGCNGPWDEDDMQCHNHCKSIKGYKGGYCAKTGFVCKCY [Mutation G33T]” it was 2. As to “GFGCNGPWDEDDMQCHNHCKSIKGVKGGYCAKGGFVCKCY [Mutation Y25V]”, the “Activity (antimicrobial activity relative to the activity of plectasin)” value stood at 2. The result for “GFGCNGPWDEDDMQCHNHCKSIKSYKGGYCAKGGFVCKCY [Mutation G24S]” reads 2.
